3 molecules from patent publication US20260231944A1, “ANTISEPTIC CONDITIONING FORMULATIONS” (THOMMES MEDICAL AG, priority 2023, published 2026) can be followed below.

The nature of data set [1]: precipitation test of PHMB and CHX in alkaline buffers (visual inspection/visible clouding). Type of data set: physicochemical.
Data set [2] relates to Human periodontal ligament fibroblasts (HPDLF). Kind of data set: cell viability of human primary cells after antiseptics in T. buffer, AlamarBlue assay. Type of data set: cell-based. Here is the method: Human periodontal ligament fibroblasts (HPDLF) were used in this study as test system, imitating closer the in vivo situation. The fibroblasts were purchased from ATCC and cultured in ScienCell FM medium, supplemented with 2% fetal bovine serum, 1% fibroblast growth factor and 1% penicillin-streptomycin (Sigma-Aldrich, Switzerland) in T75 flasks at 37° C. and 5% CO2.
To study the effect of antiseptic substances, at concentrations that are currently used in marketed products, the vitality of HPDLF cells was assessed. […] As a control, cells were incubated with T. buffer without antiseptic agent. Three replicate wells per concentration were tested. After 1 minute of incubation at 37°, the supernatant was removed and the wells were washed once with 600 μl of the fresh medium. Thereafter, cells were incubated with 600 µL of the fresh medium containing 0.015 mg/ml AlamarBlue dye, for 4 hours at 37° C. Finally, 100 μL of the medium were removed from each well and transferred to a new 96-well plate and the absorbance was measured using a BioTek microplate reader (test wavelength: 570 nm; reference wavelength: 630 nm).
After the incubation with the antiseptic agents, the metabolic activity was measured using an AlamarBlue assay (after 4 h).
(In general: The colour change of resazurin is a common sign of viable cells or microbes.)

The structures appear in SMILES notation.

Method for L929 murine fibroblasts: Mouse fibroblasts (L929 cell line) were used in this study as recommended cell line for cytotoxicity testing in accordance with EN ISO 10993-5.
The fibroblasts were purchased from ATCC and cultured in Dulbecco's Modified Eagle Medium-high glucose, supplemented with 10% fetal bovine serum and 1% penicillin-streptomycin (Sigma-Aldrich, Switzerland) in T75 flasks at 37° C. and 5% CO2. For the performance of the cytotoxicity experiments, L929 cells were seeded onto 96-well cell culture plates, 100 μ/well, at a density of 1×10^6 cells/mL to reach about 80% confluence after 24 hours.
After 60 minutes of incubation at 37°, the medium was removed and the wells were washed once with 100 μl of the fresh medium.
Thereafter, cells were incubated with 100 μL of the fresh medium containing 0.015 mg/ml AlamarBlue dye, for 2 hours at 37° C.
Finally, 100 μL of the media were removed from each well and transferred to a new 96-well plate and the absorbance was measured using a BioTek microplate reader (test wavelength: 570 nm; reference wavelength: 630 nm).
In order to test the cytocompatibility of alkaline buffers, a similar experiment was performed. However, the alkaline buffers were incubated for 10 minutes instead of 60 minutes. […]
After the incubation time, the metabolic activity, used as an indirect marker for cytotoxicity, was measured with an AlamarBlue assay. […]

As for `[H]/N=C(\N/C(=N/[H])NCCCCCCNC(=N)NC(=N)Nc1ccc(Cl)cc1)Nc1ccc(Cl)cc1` [CHX, 1,6-bis(4-chloro-phenylbiguanido)hexane], the precipitation result in data set [1] (CHX 0.06% in 0.05 M NaOH/0.05 M glycine, pH 11.06) is listed as “precipitation occurs”; in data set [1] (CHX 0.06% in 0.05 M NaOH/0.1 M glycine, pH 9.9), “no precipitation”. For the same molecule, the cell viability result in data set [2] (CHX 0.06 and 0.12% in T. buffer, 1 minute) is on record as “Low cell viability”. As for `C[S+](C)[O-]` [DMSO], the cell viability entry in data set [2] (5% DMSO (negative control)) was “low cell viability”. Take `[Na+].[OH-]` [sodium hydroxide]: the “metabolic activity (AlamarBlue)” value in the data set with L929 murine fibroblasts is listed as “significant reduction in metabolic activity”.
